Earlier results on three substances are cited in patent publication US20220304972A1, “COMBINATION THERAPY AND BIOMARKER INDICATING EFFICACY THEREOF” (Sumitomo Dainippon Pharma Co., Ltd., priority 2019, published 2022).

Read-outs that look alike come from different tables or passages of the source.

For the data set, the system named is CRC patients.

With “atezolizumab: anti-PD-L1 antibody, binds to PD-L1”, the ORR (MSS CRC, N=90 (2/90), Bendell et al. 2018, NCT02788279) is reported as 2.2%.
With “pembrolizumab: anti-PD-1 antibody, binds to PD-1”, the ORR is given as 0 (MSS CRC, N=18, Le et al. 2015, NCT01876511) and 0 (PD-1 positive MSS CRC, N=22, O' Neil et al. 2017, NCT02054806).
For the substance “nivolumab: anti-PD-1 antibody, binds to PD-1”, the ORR runs as follows: (CRC, N=14 (1/14), Brahmer 2010) 7; (Refractory CRC, N=19, Topialan et al. 2012, NCT00730639) 0.
